Data: paper PMC4169579, “Proteolytic Activity of Prostate-Specific Antigen (PSA) towards Protein Substrates and Effect of Peptides Stimulating PSA Activity” (PLoS ONE, 2014)
Read-outs that look alike come from different tables or passages of the source. Blank lines part the entries; values can stand above or below the substance they belong to.

Assays:
PSA [1] = biological target: T1, PSA (Homo sapiens, UniProt P07288); experiment: Enzyme kinetics of PSA with chromogenic peptide substrate S-2586; format: biochemical; details: S-2586 0.125–5 mM, 175 nM PSA, 0.1% BSA-TBS, room temperature, mean ± SD of two experiments
T1 construct: from tissue; host or cells: pooled human seminal fluid
T1 sequence (P07288 25-261): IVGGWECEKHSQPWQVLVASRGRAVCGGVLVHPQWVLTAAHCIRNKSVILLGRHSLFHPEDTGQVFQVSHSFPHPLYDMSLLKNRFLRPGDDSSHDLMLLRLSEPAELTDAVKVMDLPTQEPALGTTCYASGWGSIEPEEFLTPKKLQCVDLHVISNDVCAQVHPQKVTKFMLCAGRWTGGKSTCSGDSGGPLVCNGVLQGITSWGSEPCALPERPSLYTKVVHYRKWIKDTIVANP
Method: (§1) The major form of active PSA (isoform PSA-B) was purified from pooled human seminal fluid by immunoaffinity chromatography followed by anion exchange chromatography. Semenogelins I and II were isolated from human seminal fluid as previously described, but instead of alkylating the proteins, the reducing agent 30 mM dithiothreitol (Sigma-Aldrich, St. Louis, MO) was included in all buffers during purification. Semenogelins were stored in the purification buffer containing 2 M urea and 5 mM EDTA at −70°C. Prior to cleavage by PSA, the buffer was exchanged to 50 mM Tris, pH 7.7, containing 0.15 M NaCl (TBS), with Amicon Ultra centrifugal filter units (MW cut-off 30 kDa) (Millipore, Cork, Ireland) at 4°C, and protein concentration was determined by measuring absorbance at 280 nm.
The proteolytic activity of PSA towards small peptide substrates was compared with two different substrates. […] The absorbance was measured at 405 nm immediately and at 5 min intervals for 30 min and fluorescence at 355/460 nm (excitation/emission) after 10 min, 20 min, 40 min, 1 h, 2 h and 4 h incubation at room temperature with a Victor 1420 Multilabel plate reader (PerkinElmer). […]
The maximum velocity of the reaction (Vmax) and the Michaelis constant (Km), i.e., substrate concentration at which the reaction rate is half of the maximum, were evaluated for PSA with both peptide substrates using Sigma Plot 11 with the Enzyme Kinetics Module 1.3 (SYSTAT Software, Inc., San Jose, CA) and the catalytic constant (kcat), i.e., the number of substrate molecules converted to product per time unit, was calculated from the equation kcat = Vmax/[PSA]. The absorbance was converted to molar concentration with the Lambert-Beer equation (A = εcl), using the molar absorptivity of pNA (εpNA = 8800 M^−1cm^−1). Fluorescence (counts per second, cps) was transformed to molar concentrations with SigmaPlot by means of a standard curve for 7-amido-4-methylcoumarin (AMC, Sigma-Aldrich).

PSA [2] = biological target: T1, PSA; details: ref [15], [47]; cited from earlier work
Text: Previously, several selective and efficient substrates for PSA have been described. We used a fluorogenic peptide substrate identified by Denmeade and coworkers (1997). […] These differences may be explained by higher activity of the highly pu ...

HUVECs [3] = system: HUVECs; design: method as in PMID 10702407, PMID 20713592; details: full-length galectin-3; ref [55], [72]; cited from earlier work
HUVECs [4] = experiment: HUVEC tube formation assay on Matrigel; format: cell-based, human; details: two separate experiments
Method: Human umbilical vein endothelial cells (HUVECs) were isolated from umbilical cord veins and grown in Endothelial Cell Growth Medium (Promocell, Heidelberg, Germany) with 2% Ultroser G BioSepra serum substitute (PALL BioSepra, Cergy, France) and growth factors EGF and bFGF. For tube formation, HUVECs were grown on top of Matrigel (BD Biosciences) as described previously, [29].
To study the effect of PSA-cleaved protein fragments, 0.08 µM nidogen-1 or 0.4 µM galectin-3 (10 µg/ml each) were first incubated with 1 µM PSA for 24 h at 37°C in PBS (Lonza). Then PSA activity was blocked by one-hour incubation at room temperature with 2 µM monoclonal antibody 5C7 [38]. The mixture containing nidogen-1 or galectin-3 fragments with PSA blocked by antibody or the same amount of intact nidogen-1 or galectin-3 were added together with the cells onto gelled Matrigel and the cells were allowed to form tubular networks for 20 h. Control wells contained either PBS or 1 µM PSA. After overnight incubation, cell culture medium was collected from PBS and PSA control wells for SDS-PAGE and Western blotting. Images of tubular networks (100×magnification) were taken using an Axiovert 200 inverted light microscope connected to an AxioCam digital camera and visualized by AxioVision software (all from Zeiss, Göttingen, Germany).

PSA [5] = biological target: T1, PSA; experiment: Proteolytic cleavage of protein substrates by PSA (SDS-PAGE, silver staining); format: biochemical; details: 22 h incubation, 37°C, different plasminogen preparations and PSA batches
Method: as §1
Protein LoBind tubes (Eppendorf AG, Hamburg, Germany) were used in all protein degradation experiments.
PSA (0.2–1 µM) and 0.5–1 µM of each protein substrate were incubated at 37°C for 22 h in TBS buffer. During the incubation, samples of 15 µl were taken at different time points: 0 min, 10 min, 30 min, 2 h, 5 h and 22 h, and stored at −20°C before further analysis.
Immediately after each incubation, reducing 4× SDS-loading buffer (8% SDS), containing 1 M β-mercaptoethanol or 75 mM dithiothreitol, was added to each sample and proteins were denatured at 70°C for 10 min. The samples were immediately analyzed by SDS-PAGE or frozen at −20°C. Frozen samples were heated again at 70°C before loading on the gel. The cleavage of protein substrates by PSA, i.e., the disappearance of the full-length protein bands, was quantified from scanned images of silver stained gels by the measurement of relative optical densities of the protein bands using ImageJ [40]. […]
Proteins were visualized either by silver staining or Western blotting. […] After 30 min incubation in 0.2% AgNO3, the gel was rinsed briefly with water and proteins were detected with development solution, containing 700 µl/l of 37% formaldehyde, 0.001% sodium thiosulfate and 3% anhydrous Na2CO3. […]

PSA [6] = biological target: T1, PSA; details: reported to inhibit angiogenesis in vitro; ref [20]; cited from earlier work
Method: In the present study, we compared the proteolytic activity of PSA towards several protein substrates. As shown previously, semenogelins are cleaved very effectively by PSA. Malm and coworkers (2000) reported that more than half of semenogelin I is degraded after 15 min incubation with PSA [16], [63] and we observed this after 11 min incubation. Proteolysis of the other protein substrates, i.e., fibronectin, IGFBP-3, galectin-3 and nidogen-1, took much longer, reflecting the high substrate specificity of PSA for semenogelins. […] However, the detailed mechanism of the antiangiogenic activity of PSA remains unclear. Some of the proteolytically produced fragments of extracellular matrix (ECM) proteins act as endogenous angiogenesis inhibitors and may mediate the antiangiogenic effect of PSA. […] Although plasminogen ...

Substance: MeO-Suc-Arg-Pro-Tyr-pNA·HCl [Chromogenic substrate, chromogenic chymotrypsin substrate S-2586]
Km (PSA [1]; 405 nm, 5 min intervals for 30 min): 5.72 ± 1.53 mM
kcat/Km (PSA [1]): 133.4±24.6 s^−1M^−1
kcat (PSA [1]; kcat = Vmax/[PSA]): 0.75 ± 0.07 s⁻¹
kcat/Km reported previously, compared to this study (PSA [2]): somewhat lower than that we observed

Substance: galectin-3: recombinant human galectin-3
angiogenesis (HUVECs [3]): promote angiogenesis
effect on tube formation, PSA-generated fragments (HUVECs [4]; 10 µg/ml (0.08 µM nidogen-1, 0.4 µM galectin-3) precleaved by 1 µM PSA 24 h, PSA blocked by mAb 5C7, 20 h): did not have any effect on tube formation
effect on tube formation, full-length protein (HUVECs [4]; 10 µg/ml (0.08 µM nidogen-1, 0.4 µM galectin-3), 20 h, HUVECs on Matrigel): did not have any effect on tube formation

cleavage of plasminogen by PSA (PSA [5]): PSA did not cleave plasminogen
Substance: plasminogen: plasminogen (Calbiochem and Hyphen BioMed) and lys-plasminogen from human plasma
cleavage of plasminogen by PSA (PSA [6]): cleave plasminogen to angiostatin-like fragments
